Assay in all cases: NCI anticancer screen, dose series, 48 h
The test system of test [1] is ACHN.
Test [2] has as its system A549.
In test [3] the test system is SF-268.
The test system of test [4] is MDA-MB-231.
The test system of test [5] is COLO 205.
For test [6], the system named is NCI-H23.
Test [7] concerns KM12.
Test [8] relates to MDA-MB-435.
Test [9] deals with UACC-62.
The test system of test [10] is Malme-3M.
The test system of test [11] is K562.
For test [12], the system named is BT-549.
In test [13] the test system is OVCAR-3.
Test [14] relates to SK-OV-3.
For test [15], the system named is IGROV-1.
The subject of test [16] is SN12C.
The subject of test [17] is SK-MEL-28.
Test [18] relates to MOLT-4.
The subject of test [19] is HT-29.

SMILES strings stand for the structures.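 Where inhibition never reached the appropriate level, the endpoint shown equals the highest concentration tested. Otherwise, values were interpolated linearly from a five-concentration, 48-hour dose response in 96-well plates. GI50 is the concentration that inhibits growth by half.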 Activity calls are given as the source filed them. No stated cut-off is given here; in the data, active = GI50 up to about 1.1 µM and inactive = higher.

With `CCCCCCOc1ccc(C(=O)NO)cc1`, the GI50 is 5.07 µM (inactive) in test [1]; 14.3 µM (inactive) in [2]; 5.64 µM (inactive) in test [3]; 11 µM (inactive) in test [4]; 9.51 µM (inactive) in test [5]; 7.03 µM (inactive) in test [6]. The GI50 in [7] was 11.9 µM (inactive); in [8], 9.68 µM (inactive); in test [9], 6.82 µM (inactive); in test [10] it was 11.3 µM (inactive); in test [11], 5.22 µM (inactive); in test [12] it was 15.8 µM (inactive). Moreover, the GI50 in test [13] was 6.03 µM (inactive); in [14], 10.5 µM (inactive); in test [15], 3.61 µM (inactive); in test [16] it was 10.2 µM (inactive); in test [17] it was 16 µM (inactive); in [18] it was 1.07 µM (active). Further, in [19], the GI50 was 7.57 µM (inactive).

Regarding `C=CCCC1(CC(Sc2ccccc2)P(=O)(c2ccccc2)c2ccccc2)OCCO1` (configuration not stated), the GI50 in test [1], in [2], in test [3], in test [4], in test [5] and in test [6] was > 10 µM (inactive) each time. Moreover, the GI50 in [7], in test [8], in test [9], in test [10], in [11] and in test [12] was > 10 µM (inactive) throughout. The GI50 in test [13], in [14], in test [15], in test [16], in test [17] and in test [18] was > 10 µM (inactive) each time. The GI50 in [19] was > 10 µM (inactive).

For the compound `CC(C)C(=O)/C=C/c1ccc(Cl)cc1Cl`, the GI50 was 16.2 µM (inactive) in test [1]; 14.8 µM (inactive) in test [2]; 6.93 µM (inactive) in [3]; 23.9 µM (inactive) in test [4]; 18.5 µM (inactive) in test [5]; 13.7 µM (inactive) in test [6]. Moreover, the GI50 in [7] is 4.06 µM (inactive); in [8], 2.99 µM (inactive); in test [9], 13 µM (inactive); in test [10], 14.8 µM (inactive); in test [11], 5.37 µM (inactive); in [12], 4.41 µM (inactive). Further, the GI50 in [13] was 4.63 µM (inactive); in [14], 19.6 µM (inactive); in [15], 14.8 µM (inactive); in test [16], 10.7 µM (inactive); in [17], 16.5 µM (inactive); in test [18] it was 8.15 µM (inactive). Further, the GI50 in test [19] is 3.99 µM (inactive).

For `CN(C)/C=N/S(=O)(=O)c1nn2c(C=O)c(-c3ccc(-c4ccccc4)cc3)nc2s1`, the GI50 is 1.57 µM (inactive) in test [1]; 11.5 µM (inactive) in test [2]; 2.1 µM (inactive) in test [3]; 2.99 µM (inactive) in [4]; 2.56 µM (inactive) in [5]; 1.78 µM (inactive) in test [6]. Further, the GI50 in test [7] is 2.48 µM (inactive); in test [8], 1.69 µM (inactive); in test [9] it was 2.34 µM (inactive); in [10] it was 1.32 µM (inactive); in [11] it was 0.316 µM (active); in test [12], 0.83 µM (active). The GI50 in test [13] is 1.92 µM (inactive); in test [14], 15.1 µM (inactive); in [15], 1.24 µM (inactive); in test [16], 1.97 µM (inactive); in test [17], 1.98 µM (inactive); in test [18], 0.283 µM (active). In addition, the GI50 in test [19] was 0.347 µM (active).

As for `CN(C)C(=S)S` [SODIUM DIMETHYLCARBAMODITHIOATE], the GI50 in test [1] was > 71 µM (inactive); in test [2] it was > 100 µM (inactive); in test [3], > 100 µM (inactive); in test [4] it was 43.6 µM (inactive); in test [5] it was 27.9 µM (inactive); in test [6] it was > 50.8 µM (inactive). Also, the GI50 is > 25.2 µM (inactive) in test [7]; > 78 µM (inactive) in test [8]; > 100 µM (inactive) in test [9]; > 43.8 µM (inactive) in test [10]; 2.44 µM (inactive) in [11]; > 100 µM (inactive) in [12]. Further, the GI50 in test [13] is 0.305 µM (active); in [14], > 100 µM (inactive); in test [15], 2.23 µM (inactive); in test [16], 80 µM (inactive); in [17], > 64.4 µM (inactive); in test [18], 35.4 µM (inactive). The GI50 in test [19] was 11.5 µM (inactive).

`CCCC1=C(OC)C(=O)c2c(C)cc(Cl)nc2C1=O`: the GI50 is 6.92 µM (inactive) in [1]; 13.6 µM (inactive) in test [2]; 7.08 µM (inactive) in [3]; 5.53 µM (inactive) in [4]; 7.93 µM (inactive) in test [5]; 4.11 µM (inactive) in test [6]. Also, the GI50 is 7.29 µM (inactive) in test [7]; 1.84 µM (inactive) in test [8]; 3.3 µM (inactive) in [9]; 3.02 µM (inactive) in test [10]; 2.02 µM (inactive) in test [11]; 13.6 µM (inactive) in test [12]. For the same compound, the GI50 is 2.81 µM (inactive) in test [13]; 17 µM (inactive) in test [14]; 11.7 µM (inactive) in [15]; 4.14 µM (inactive) in test [16]; 6.81 µM (inactive) in [17]; 1.55 µM (inactive) in [18]. For the same compound, in [19], the GI50 is 4.3 µM (inactive).

As to `CCCCCCCCCCCCCCCCCCOC(COP(=O)(O)OCC1OC(n2cc(F)c(=O)[nH]c2=O)CC1O)COP(=O)(O)OCC1OC(n2ccc(N)nc2=O)C(O)C1O` (configuration not stated), the GI50 was 0.474 µM (active) in test [1]; 2.81 µM (inactive) in test [2]; 0.536 µM (active) in test [3]; > 100 µM (inactive) in test [4]; 20.8 µM (inactive) in [5]; 7.98 µM (inactive) in test [6]. Further, the GI50 is 59.2 µM (inactive) in test [7]; 19.5 µM (inactive) in test [8]; 2.56 µM (inactive) in test [9]; > 68.9 µM (inactive) in [10]; > 32.2 µM (inactive) in test [11]; 18.5 µM (inactive) in test [12]. The GI50 in test [13] is > 100 µM (inactive); in test [14], > 71.3 µM (inactive); in test [15], 13.6 µM (inactive); in test [16], 23.9 µM (inactive); in test [17], 64.6 µM (inactive); in test [18], 1.72 µM (inactive). Moreover, the GI50 in [19] was 18.2 µM (inactive).

On to `C=C(CCC(=O)N(CCc1c[nH]c2ccccc12)C(=O)c1ccccc1CSCC)C(=O)OC`, for which the GI50 is 31.9 µM (inactive) in test [1]; 27.1 µM (inactive) in [2]; > 77.3 µM (inactive) in test [3]; 30.1 µM (inactive) in test [4]; 20.9 µM (inactive) in test [5]; 31.9 µM (inactive) in [6]. Moreover, the GI50 in [7] is 8.2 µM (inactive); in test [8], 22 µM (inactive); in test [9], 12.4 µM (inactive); in test [10], 48.9 µM (inactive); in [11], 5.66 µM (inactive); in [12], 71.9 µM (inactive). Moreover, the GI50 was > 39.5 µM (inactive) in test [13]; > 71.3 µM (inactive) in test [14]; 60.1 µM (inactive) in test [15]; 30.3 µM (inactive) in [16]; > 100 µM (inactive) in test [17]; 4.02 µM (inactive) in test [18]. In test [19], the GI50 was 19.5 µM (inactive).

The record behind these values is ChEMBL document CHEMBL1201862, “PubChem BioAssay data set” (2004).
